# Test results reported in patent publication US5681821A, “Fluorescent 1-peptidylaminoalkanephosphonate derivatives” (Georgia Tech Research Corp., priority 1994, dated 1997).
# T1: Asp-ase granule protease (Rattus norvegicus, UniProt P18291)
# T1 construct: endogenous in cells; host or cells: RNK-16
# T1 sequence (P18291 21-248): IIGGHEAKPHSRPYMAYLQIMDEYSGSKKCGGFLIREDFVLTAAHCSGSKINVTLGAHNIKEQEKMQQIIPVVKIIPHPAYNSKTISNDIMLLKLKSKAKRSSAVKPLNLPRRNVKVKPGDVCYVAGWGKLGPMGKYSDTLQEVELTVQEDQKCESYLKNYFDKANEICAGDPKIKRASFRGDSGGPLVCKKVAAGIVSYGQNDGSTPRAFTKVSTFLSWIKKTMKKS
# T2: human leukocyte elastase (HLE) (Homo sapiens, UniProt P08246)
# T2 construct: purchased Athens Research and Technology, Inc., Athens, Ga
# T2 sequence (P08246 30-267): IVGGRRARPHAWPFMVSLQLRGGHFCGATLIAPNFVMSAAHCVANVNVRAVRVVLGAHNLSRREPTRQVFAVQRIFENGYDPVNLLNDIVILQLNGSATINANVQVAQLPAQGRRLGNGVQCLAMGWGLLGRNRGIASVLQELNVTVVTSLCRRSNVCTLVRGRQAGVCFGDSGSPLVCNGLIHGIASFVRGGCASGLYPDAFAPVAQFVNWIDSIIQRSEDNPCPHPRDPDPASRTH
# B1: soybean trypsin inhibitor: reversible serine protease inhibitor, macromolecular inhibitor (protein, UniProt P01070 25-205, looked up)
# Trypsin inhibitor A: DFVLDNEGNPLENGGTYYILSDITAFGGIRAAPTGNERCPLTVVQSRNELDKGIGTIISSPYRIRFIAEGHPLSLKFDSFAVIMLCVGIPTEWSVVEDLPEGPAVKIGENKDAMDGWFRLERVSDDEFNNYKLVFCPQQAEDDKCGDIGISIDHDDGTRRLVVSKNKPLVVQFQKLDKESL
# Legend:
# chymotrypsin = chymotrypsin (Bos taurus, UniProt P00766); experiment: Inactivation of chymotrypsin, incubation method; assay type: biochemical, bovine; conditions: for kobsd /(I) Chymotrypsin: 0.1 M Hepes, 0.5 M NaCl, pH 7.5, 5-10% Me2SO, 25° C., NI = no inhibition after 40 min of incubation
# Procedure: (§1) Inactivation rates of serine proteases by fluorescent peptidylphosphonates were measured by the incubation method. In each case the inactivation experiment was preceded by an enzyme assay in which the hydrolysis of peptide p-nitroanilide substrates, catalyzed by chymotrypsin, PPE, HLE, and trypsin was measured in 0.1M Hepes and 0.5M NaCl (0.01M CaCl2 for trypsin), pH 7.5 buffer containing 5-10% Me2 SO at 25° C. Stock solutions of substrates were prepared in Me2 SO (20 mM) and stored at -20° C. Final substrate concentrations were 0.24 mM. Chymotrypsin activity was assayed with Suc-Val-Pro-Phe-NA. PPE was assayed with Suc-Ala-Ala-Ala-NA. HLE was assayed with MeO-Suc-Ala-Ala-Pro-Val-NA and trypsin was assayed with Z-Arg-NA. The initial rates of hydrolysis were measured at 410 nm (ε410 =8800 M^-1 cm^-1) on a Beckman 35 spectrophotometer after 25-50 μL of an enzyme stock solution was added to a cuvette containing 2.0 mL of buffer and 25 μL of substrate.
# (§2) Each inhibition reaction was initiated by adding a 50 μL aliquot of inhibitor (100-5000 μM in Me2 SO) to 0.5 mL of a 0.1M Hepes, 0.5M NaCl (0.01M CaCl2 for trypsin), pH 7.5 buffer containing 50 μL of a stock enzyme solution at 25° C. The enzyme stock solutions were 20 μM chymotrypsin, trypsin, and PPE in 1 mM HCl (pH 3), and 0.4-4 μM HLE in 0.25M NaAc and 1M NaCl at pH 5.5. All the enzyme stock solutions were stored at -20° C. prior to use. Aliquots (25 μL) were withdrawn at various intervals and the residual enzymatic activity was measured spectrophotometrically as described above. Pseudo first-order inactivation rate constants (kobsd) were obtained from plots of ln vt /vo vs time and had correlation coefficients greater than 0.98. Each kobsd was calculated from 5-10 activity determinations which extended to 2-3 half lives. Control experiments were carried out in the same way as described above except Me2 SO was added in place of the inhibitor solution in Me2 SO. […] These initial rates were used as vo in the calculation of the inhibition rate constants.
# RNK-16 chymase [1] = experiment: Inactivation of RNK-16 granule chymase activity; assay type: biochemical; conditions: granule protease activity
# Asp-ase granule protease = target: T1, Asp-ase granule protease; experiment: Inactivation of RNK-16 granule Asp-ase activity; assay type: biochemical; conditions: RNK-16 granule protease activity
# [2] = tested on: tryptase granule protease; experiment: Inactivation of RNK-16 granule tryptase activity; assay type: biochemical; conditions: RNK-16 granule protease activity
# [3] = target: T2, human leukocyte elastase (HLE); experiment: Inactivation of HLE, incubation method; assay type: biochemical; conditions: 0.1 M Hepes, 0.5 M NaCl, pH 7.5, 5-10% Me2SO, 25° C.; NI = no inhibition after 40 min of incubation
# Procedure: as §1, §2
# RNK-16 cells = experiment: Cell labeling and confocal imaging of NK line RNK-16; assay type: cell-based; conditions: live RNK-16 cells, 0.1 mM inhibitor, 30 minutes, 37° C., confocal microscopy
# Procedure: Cell Labeling and Imaging. Cells of the NK line RNK-16 were labeled as live cells, washed, treated with methanol as a fixative and permeabilizing agent, and then examined by confocal microscopy. The cells were treated at 1×10^7 cells/mL in RPMI 1640 culture media (Sigma Chemical Co., St. Louis, Mo.) containing 10 mM Hepes with 0.1 mM FTC-Aca-Ala-Ala-Met^P (OPh)2 for 30 minutes at 37° C. Control cells were treated with the same volume of DMSO required to deliver the inhibitor (typically 1% final concentration). Cells were then washed several times with phosphate buffered saline (PBS) to remove excess inhibitor. They were suspended overnight in cold 80% methanol to permeabilize the membrane. The cells were washed free of MeOH into PBS and fixed onto poly-L-lysine (Sigma) coated microscope slides using 3% paraformaldehyde. Fixed slides were washed in PBS, coated with Vectashield (Vector Laboratories, Inc., Burlingame, Ca.) to prevent fluorescence fading and topped with a coverslip. Fluorescent laser scanning confocal microscopy was done with a Bio-Rad MRC 600 confocal system utilizing a Zeiss Axiophot microscope and equipped with a mixed-gas argon/krypton ion laser using 488 nm excitation for fluorescein.
# [4] = target: T3, porcine pancreatic elastase (PPE) (Sus scrofa, UniProt P00772); experiment: Inactivation of PPE, incubation method; assay type: biochemical; conditions: 0.1 M Hepes, 0.5 M NaCl, pH 7.5, 5-10% Me2SO, 25° C.; NI = no inhibition after 40 min of incubation
# T3 construct: purchased United States Biochemical Corp., Cleveland, Ohio
# T3 sequence (P00772 27-266): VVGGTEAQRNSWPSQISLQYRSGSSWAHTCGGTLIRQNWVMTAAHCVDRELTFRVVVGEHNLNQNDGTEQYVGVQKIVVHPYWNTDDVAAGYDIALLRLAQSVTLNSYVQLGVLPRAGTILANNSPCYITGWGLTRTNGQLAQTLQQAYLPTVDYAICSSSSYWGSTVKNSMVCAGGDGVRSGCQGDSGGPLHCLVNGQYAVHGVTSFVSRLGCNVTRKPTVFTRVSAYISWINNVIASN
# Procedure: as §1, §2
# [5] = tested on: tryptase granule protease; conditions: previous approach, comparison; cited from earlier work
# RNK-16 chymase [6] = conditions: previous approach, comparison; cited from earlier work
Molecule,kobsd /(I) Chymotrypsin (chymotrypsin) [M⁻¹ s⁻¹],kobsd /(I) HLE [3] [M⁻¹ s⁻¹],kobsd /(I) PPE [4] [M⁻¹ s⁻¹],other results
"CSCCC(NC(=O)[C@H](C)NC(=O)[C@H](C)NC(=O)CCCCCNC(=S)Nc1ccc2c(c1)C(=O)OC21c2ccc(O)cc2Oc2cc(O)ccc21)P(=O)(Oc1ccccc1)Oc1ccccc1 (stereo partly drawn) [Compound 1, Diphenyl 1-(6-(5-Fluoresceinylthiocarbamoylamino)caproylalanylalanylamino)-3-(methylthio)propanephosphonate]",190,22,13,"inactivation of RNK-16 chymase (RNK-16 chymase [1]): inactivated; inactivation of Asp-ase granule protease activity (Asp-ase granule protease): little; inactivation of tryptase granule protease activity [2]: little; fluorescent labeling of cells (RNK-16 cells): reacted with distinct, granule-like regions"
"CC(NC(=O)[C@H](C)NC(=O)[C@H](C)NC(=O)CCCCCNC(=S)Nc1ccc2c(c1)C(=O)OC21c2ccc(O)cc2Oc2cc(O)ccc21)P(=O)(Oc1ccccc1)Oc1ccccc1 (stereo partly drawn) [Compound 2, Diphenyl 1-(6-(5-Fluoresceinylthiocarbamoylamino)caproylalanylalanylamino) ethanephosphonate]",,,22,
"CC(C)C[C@H](NC(=O)[C@H](Cc1ccccc1)NC(=O)CCCCCNC(=S)Nc1ccc2c(c1)C(=O)OC21c2ccc(O)cc2Oc2cc(O)ccc21)C(=O)NC(Cc1ccccc1)P(=O)(Oc1ccccc1)Oc1ccccc1 (stereo partly drawn) [Compound 3, Diphenyl 1-(6-(5-Fluoresceinylthiocarbamoylamino)caproylphenylalanylleucylamino)-2-phenylethanephosphonate]",,,16,times faster inhibition of chymotrypsin than of HLE (chymotrypsin; ratio of kobsd/(I) chymotrypsin to HLE): 600
"CSCCC(NC(=O)[C@H](C)NC(=O)[C@H](C)NC(=O)OC(C)(C)C)P(=O)(Oc1ccccc1)Oc1ccccc1 (stereo partly drawn) [Compound 5, Boc-Ala-Ala-Met^P (OPh)2, reference compound]",3,2,3,
"CC(NC(=O)[C@H](C)NC(=O)[C@H](C)NC(=O)OCc1ccccc1)P(=O)(Oc1ccccc1)Oc1ccccc1 (stereo partly drawn) [Compound 6, Z-Ala-Ala-Ala^P (OPh)2, reference compound]",,,30,
"CC(C)C[C@H](NC(=O)[C@H](Cc1ccccc1)NC(=O)OCc1ccccc1)C(=O)NC(Cc1ccccc1)P(=O)(Oc1ccccc1)Oc1ccccc1 (stereo partly drawn) [Compound 7, Z-Phe-Leu-Phe^P (OPh)2, reference compound]",110,27,,
"Diphenyl 1-(6-(4(or 2)(9-(2,3,6,7,12,13,16,17-octahydro-1H,5H,11H,15H-xantheno(2,3,4-ij:5,6,7- i'j')diquinolizinyl-18-ium))3(or 5)sulfo-1-phenylsulfonamido)caproylphenylalanylleucylamino)-2-phenylethanephosphonate, Hydroxide, Inner Salt [Compound 4]",15,96,11,
B1,,,,inactivation of tryptases of cytotoxic lymphocytes [5]: inactivated; inactivation of chymases of cytotoxic lymphocytes (RNK-16 chymase [6]): inactivated
